{
  "source": "patent US12366579B2",
  "about": "“Sulfur-heterocycle exchange chemistry and uses thereof” (University of Virginia Patent Foundation, priority 2019, dated 2025)",
  "key": {"[1]": {"tested_on": "human cell proteomes (HEK293T, A549, DM93, H82, and Jurkat cells)", "assay": "LC-MS chemical proteomics of probe-modified tyrosine sites across 5 cell proteomes", "assay_type": "binding", "settings": "HHS-465 and -475 together; 100 μM, 1 hr, 25° C.", "protocol": "Proteomes were diluted to 2.3 mg/mL in PBS and sample aliquots (432 μL) were treated with sulfonyl-triazole or -fluoride probes at the indicated concentrations (5 μL, 100× stock in DMSO), mixed gently and incubated for 1 h at room temperature. Probe-modified proteomes were subjected to CuAAC conjugation to desthiobiotin-PEG3-azide (10 μL of 10 mM stock in DMSO; final concentration of 200 μM) using TCEP (10 μL of fresh 50 mM stock in water; 1 mM final concentration), TBTA ligand (33 μL of a 1.7 mM 4:1 t-butanol/DMSO stock, 100 μM final concentration), and CuSO4 (10 μL of 50 mM stock, 1 mM final concentration). Samples were mixed by vortexing and then incubated for 1 h at room temperature. Excess reagents were removed by chloroform-methanol extraction as previously described^51. Protein pellets were re-suspended in 500 μL of 6M urea/25 mM ammonium bicarbonate followed by DTT reduction and IAA alkylation as previously described^5. Excess reagents were removed by chloroform/methanol extraction as described above, and the protein pellet was re-suspended in 500 μL of 25 mM ammonium bicarbonate and then digested to peptides using trypsin/Lys-C (7.5 μg in 15 μL of ammonium bicarbonate, sequencing grade from Promega, Madison, Wisconsin, United States of America) was added to the mixture and incubated for 3 hrs at 37° C. […]"}, "[2]": {"tested_on": "HEK293T soluble proteomes", "assay": "LC-MS chemical proteomics of probe-modified sites in cell proteomes", "assay_type": "binding, human", "protocol": "Proteomes were diluted to 2.3 mg/mL in PBS and sample aliquots (432 μL) were treated with sulfonyl-triazole or -fluoride probes at the indicated concentrations (5 μL, 100× stock in DMSO), mixed gently and incubated for 1 h at room temperature. Probe-modified proteomes were subjected to CuAAC conjugation to desthiobiotin-PEG3-azide (10 μL of 10 mM stock in DMSO; final concentration of 200 μM) using TCEP (10 μL of fresh 50 mM stock in water; 1 mM final concentration), TBTA ligand (33 μL of a 1.7 mM 4:1 t-butanol/DMSO stock, 100 μM final concentration), and CuSO4 (10 μL of 50 mM stock, 1 mM final concentration). Samples were mixed by vortexing and then incubated for 1 h at room temperature. Excess reagents were removed by chloroform-methanol extraction as previously described^51. Protein pellets were re-suspended in 500 μL of 6M urea/25 mM ammonium bicarbonate followed by DTT reduction and IAA alkylation as previously described^5. Excess reagents were removed by chloroform/methanol extraction as described above, and the protein pellet was re-suspended in 500 μL of 25 mM ammonium bicarbonate and then digested to peptides using trypsin/Lys-C (7.5 μg in 15 μL of ammonium bicarbonate, sequencing grade from Promega, Madison, Wisconsin, United States of America) was added to the mixture and incubated for 3 hrs at 37° C. Probe-modified peptides were enriched by avidin affinity chromatography, eluted, and prepared for LC-MS analysis as previously described^51.\nA top 10 data-dependent acquisition MS method was used.\nSulfonyl-probe modifications of tyrosine, lysine, and other amino acids were included as a variable (common) modification of +635.27374 Da. […] A Byonic score of 300 was applied for a more inclusive initial evaluation of the search results and thereby consider more possible probe-modified sites. MS1 and MS2 spectra corresponding to the highest-scoring tyrosine- and lysine (internal or non-C terminal)-modified sequences (˜50-100 peptides) were manually verified. […] Distinct peptides containing probe-modified amino acid residues (termed sites) were determined by identifying all unique razor protein and site combinations across all of the proteomes tested.\nTo compare amino acid residues modified by sulfonyl probes, protein and peptide identifications were accomplished as described above with variable (common) modification of +635.27374 Da on the following amino acid residues: cysteine, aspartic acid, glutamic acid, histidine, lysine, methionine, asparagine, glutamine, arginine, serine, threonine, tryptophan, and tyrosine. For these amino acid comparisons, carbamidomethylation (+57.021464 Da) of cysteines was searched as a variable/common modification to allow for the potential of probe modification on cysteines. Comparisons of probe-modified sites across all probes and cell lines tested were performed using the R package ggplot2 (online at tidyverse.org). Venn diagrams for comparisons were generated using the VennDiagram R package^52.\nProteomes were digested with trypsin protease and desthiobiotin-modified peptides enriched by avidin affinity chromatography, released, and analyzed by high-resolution liquid chromatography-mass spectrometry (LC-MS). Probe-modified peptide-spectrum matches (PSMs) that met a quality control confidence criteria of ≥300 Byonic score^31 and ≤5 ppm mass accuracy were selected for further manual evaluation."}},
  "data": [
    {"smiles": "C#CCNC(=O)c1ccc(S(=O)(=O)n2cncn2)cc1", "note": "[HHS-475, 4-((1H-1,2,4-Triazol-1-yl)sulfonyl)-N-(prop-2-yn-1-yl)benzamide]", "values": [
      {"measurement": "tyrosine sites identified in aggregate across 5 cell proteomes", "setting": "[1]", "value": "~8,000 sites"},
      {"measurement": "unique-modified tyrosine sites among 1,2,4-SuTEx probes", "setting": "[2]; FIG. 4D", "value": 391, "unit": "sites"},
      {"measurement": "tyrosine specificity, Y/K ratio of modified sites", "setting": "[2]; LC-MS chemical proteomics, FIG. 4A", "value": 2.8}
    ]}
  ]
}
